Laboratory results from patent US20140221429A1, “HETEROCYCLIC SCHIFF'S BASES AS NOVEL AND NEW ANTIGLYCATION AGENTS” (priority 2013, published 2014).
Where “and” joins values, the source holds several entries; their conditions need not be identical. Equal entries are not always repeated. Where two headings read alike, the source gives them in different places. Values belong to the molecule of their own block, whether it stands above or below them.

Target: T1, bovine serum albumin (BSA-methylglyoxal glycation) (Bos taurus, UniProt P02769)
T1 construct: purchased Merck Marker Pvt; Ltd. (Germany)
Experiment: in vitro BSA-MG glycation model (antiglycation assay)
Format: biochemical
Details: for inhibition at 1000 µM: read-out: inhibition of protein glycation
Method: Bovine Serum Albumin (BSA) was purchased from Merck Marker Pvt. Ltd. (Germany), rutin and methylglyoxal (MG) (40% aqueous solution) were from Sigma Aldrich (Japan), sodium dihydrogen phosphate (NaH2PO4), disodium hydrogen phosphate (Na2HPO4) and sodium azide (NaN3) were purchased from Scharlau Chemie, S. A. (Spain), while dimethyl sulphoxide (DMSO) was purchased from Fischer Scientific (UK).
The total reaction volume of the assay was 200 μL, having final concentrations of 10 mg/mL BSA, 14 mM methylglyoxal, and 1 mM test compounds. 10 mg/mL solution of BSA and 14 mM methylglyoxal was prepared in 0.1 M phosphate buffer (pH 7.4), containing sodium azide (NaN3) (30 mM) as antimicrobial agent, while 1 mM solutions of test compounds were prepared in the DMSO. Assay was performed in triplicate. Each reaction mixtures were comprised of 50 μL BSA, 50 μL methylglyoxal, 20 μL test compound and 80 μL phosphate buffer (pH 7.4). The reaction mixture was incubated under aseptic conditions at 37° C. for 9 days.
After completion of nine days of incubation, each sample was examined for the development of specific fluorescence (excitation 330 nm; emission 420 nm) against blank on a microtitre plate reader (SpectraMax M2, Molecular Devices, CA, USA).
The percent inhibition of AGE formation by the test sample versus control was calculated by using the following formula:
% Inhibition=([…]−Fluorescence of test sample/Fluorescence of the control)×100
The IC50 (i.e. the concentration of test samples that inhibit the process of glycation to 50%) was determined by monitoring the effect of various concentrations (ranges from 1000-50 μM) of test compounds. The IC50 values were calculated by using EZ-FIT Enzyme Kinetics Program (Perrella Scientific Inc., Amherst, USA). The antiglycation potential of test compounds was compared with rutin, which was used as standard inhibitor.

[1] = Antiglycation Studies IC50 ± SEM, BSA-MG model, 10 mg/mL BSA, 14 mM methylglyoxal, 37° C., 9 days, fluorescence ex 330/em 420 nm

T1 sequence (P02769 25-607): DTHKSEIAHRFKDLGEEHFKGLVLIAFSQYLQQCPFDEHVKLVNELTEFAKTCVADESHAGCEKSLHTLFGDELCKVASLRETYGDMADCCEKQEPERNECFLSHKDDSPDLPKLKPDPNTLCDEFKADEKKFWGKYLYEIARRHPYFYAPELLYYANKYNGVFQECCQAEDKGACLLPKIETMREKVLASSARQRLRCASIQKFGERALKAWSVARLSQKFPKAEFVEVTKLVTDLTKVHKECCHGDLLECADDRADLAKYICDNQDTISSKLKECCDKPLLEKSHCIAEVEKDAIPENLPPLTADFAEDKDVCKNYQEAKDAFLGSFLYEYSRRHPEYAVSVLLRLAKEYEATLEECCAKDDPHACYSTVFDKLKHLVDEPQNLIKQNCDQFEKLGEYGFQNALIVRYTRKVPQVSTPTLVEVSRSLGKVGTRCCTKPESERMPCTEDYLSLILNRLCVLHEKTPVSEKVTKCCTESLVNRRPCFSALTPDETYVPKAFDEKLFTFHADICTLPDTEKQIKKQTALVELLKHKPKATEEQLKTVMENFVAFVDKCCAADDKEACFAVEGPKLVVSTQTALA

Structure (SMILES): C[C@@H]1O[C@@H](OC[C@H]2O[C@@H](Oc3c(-c4ccc(O)c(O)c4)oc4cc(O)cc(O)c4c3=O)[C@H](O)[C@@H](O)[C@@H]2O)[C@H](O)[C@H](O)[C@H]1O [Rutin, reference compound]
IC50 (BSA-MG model, 10 mg/mL BSA, 14 mM methylglyoxal, 37° C., 9 days, fluorescence ex 330/em 420 nm, read-out: Antiglycation Studies IC50 ± SEM): 294 µM and 295 µM

Antiglycation Studies IC50 ± SEM: Inactive
antiglycation activity (in words): inactive
inhibition at 1000 µM: < 50%
Structure (SMILES): O=C(NN=Cc1cccc([N+](=O)[O-])c1)c1ccccc1 [Compound 1, N′-(3-Nitrobenzylidene)benzohydrazide]

Antiglycation Studies IC50 ± SEM: Inactive
antiglycation activity (in words): inactive
inhibition at 1000 µM: < 50%
Structure (SMILES): O=C(NN=Cc1ccccc1[N+](=O)[O-])c1ccccc1 [Compound 2, N′-(2-Nitrobenzylidene)benzohydrazide]

IC50 (Antiglycation IC50 (unit printed as μ), BSA-MG model assay): 442.8 ± 0.68 µM
IC50 [1]: 442.8 ± 0.68 µM
antiglycation activity (in words) (BSA-MG model): moderate inhibition
Structure (SMILES): Cc1ccc(C=NNC(=O)c2cccs2)o1 [Compound 4, 2-Thiophencarboxylic acid, [(5-methyl-2-furanyl)methylene] hydrazide (9CI)]

IC50 [1]: 862.8 ± 3.3 µM
Structure (SMILES): C(=Nc1ccc(Cc2ccc(N=Cc3ccccn3)cc2)cc1)c1ccccn1 [Compound 6, Bis[4-(2-pyridylmethyleneamino)phenyl]methane]

Structure (SMILES): O=C(NN=Cc1ccco1)c1cccs1 [Compound 3, 2-Thiophenecarboxylic acid, (2-furanylmethylene)hydrazide (9CI)]
IC50 [1]: 520.8 ± 1.8 µM
antiglycation activity (in words) (BSA-MG model): moderate inhibition

IC50 [1]: 397.2 ± 2.2 µM
Structure (SMILES): C(=NNc1ccccn1)c1ccccn1 [Compound 5, 1,3-Bis(2′-pyridyl)-1,2-diazapropen-2-ene]
